Experimental data taken from patent publication US10351594B2, “Process for preparing compounds having triple activities of thrombolysis, antithrombosis, and radical scavenging” (Shanghai Lumosa Therapeutics Co., Ltd., priority 2013, dated 2019).
Marks after values point to notes of the source that are not given here.

How the values were obtained:
[1] = test system: thrombus (rat arteriovenous bypass thrombolysis model); assay: Thrombolytic activity via intravenous administration, rat arteriovenous bypass thrombolysis model; type: in vivo, male SD rats; conditions: rat; for Weight reduction in thrombus: intravenous injection, 5Aa-p 0.1 nmol/kg, 1 hour, n = 10; for Thrombolytic activity, result in words: intravenous, 0.1 nmol/kg (5Ak also 0.01 and 0.001 nmol/kg), urokinase 20000 U/kg
Experimental: 200-220 g male SD rats were anesthetized with 20% urethane solution (6 mL/kg, ip). Anesthetized rats were fixed in a supine position, and the right common carotid artery was separated, clamped at the proximal end with an arterial clip, and penetrated with a suture at the proximal and distal ends, respectively. The suture at the distal end is clipped tightly by a hemostatic clamp at the skin/fur. Cannulation was performed at the distal end, the arterial clamp was loosened, and about 1 ml arterial blood was discharged into a 1 mL EP vial. 0.1 mL rat arterial blood was injected into a vertically fixed glass tube (15 mm in length, with an inner diameter of 2.5 mm and an outer diameter of 5.0 mm, sealed with a rubber stopper at the bottom), into which was immediately inserted a thrombus immobilization screw made of stainless steel. […] 40 min after the blood coagulated, the rubber stopper at the bottom of the glass tube was removed, the stem of the thrombus immobilization screw was fixed by forceps, and the thrombus-wrapped thrombus immobilization screw was carefully taken out from the glass tube and precisely weighted.
A bypass cannula was composed of 3 segments. The middle segment was a polyethylene tube having a length of 60 mm and an inner diameter of 3.5 mm. The segments on both ends were similar polyethylene tubes having a length of 100 mm, an inner diameter of 1 mm and an outer diameter of 2 mm, one end of which was pulled to form a tip, with an outer diameter of 1.0 mm (used in inserting into the rat carotid artery or vein), the other end of which was sheathed by a polyethylene tube having a length of 7 mm and an outer diameter of 3.5 mm (thickened, used in inserting into the polyethylene tube of the middle segment). The inner wall of the 3-segment cannula was entirely silylated. The thrombus-wrapped thrombus immobilization screw was placed into the polyethylene tube of the middle segment, and both ends of the tube sheath the thickened ends of two polyethylene tubes. The cannula was filled with a heparin solution in normal saline (50 IU/kg) through the tip end by using an injector and was ready for use.
The left external jugular vein of the rat was separated and penetrated with a suture at the proximal and distal ends respectively, and the distal end was ligated. An incision was carefully made on the exposed left external jugular vein, and the tip of the bypass cannula prepared as described above was inserted into the proximal end of the incision in the left external jugular vein, away from the stem of the thrombus immobilization screw in the middle segment of the bypass cannula (which accommodated the accurately weighed thrombus immobilization screw). A precise amount of heparin in saline (50 IU/kg) was injected through the tip at the other end by using an injector. At this moment, without removing the injector from the polyethylene tube, the tube between the injector and the polyethylene tube was clamped with a hemostatic clamp. The blood flow was stopped by clamping the proximal end of the right common carotid artery with an arterial clip, and an incision was cut carefully across the common carotid artery near the clip. The injector was pulled out of the polyethylene tube through the tip, and the tip of the polyethylene tube was then inserted into the proximal end of the artery incision. Both ends of the bypass cannula were fixed to the artery or vein with #4 sutures.
A scalp needle was used to pass saline solution, a urokinase in saline solution or varied concentrations of the compounds in saline solution through the middle section of the bypass cannula (which accommodated the accurately weighed thrombus immobilization screw) to a position at the proximal vein and away from the thrombus immobilization screw. The artery clip was then removed to allow blood to flow from the artery to the vein through the bypass cannula. A rat arteriovenous bypass thrombolysis model was thus established. […]

[2] = test system: formation of thrombus (rat arteriovenous bypass); assay: Antithrombotic activity via intravenous administration, rat arteriovenous bypass cannula with thread; type: in vivo, male SD rats; conditions: rat, 5Aa-p (i.v.) 0.1 nmol/kg, 15 minutes, n = 10
Text: A cannula was composed of 3 segments. The middle segment has a length of 80 mm and an inner diameter of 3.5 mm. […] The pre-weighed, 60 mm in length thread was placed in the middle segment of the polyethylene tube. Both ends of the wider tube sheathed the un-narrowed ends of two polyethylene tubes respectively (0.5 mm of the thread was restrained by one of the segment to fix the thread). The cannula was filled with a heparin solution in normal saline (50 IU/kg) through the tip end by using an injector and was ready for use. 200-220 g male SD rats were anesthetized with 20% urethane solution (6 mL/kg, ip). Anesthetized rats were fixed in a supine position, and the left external jugular vein was separated and penetrated with a suture at the proximal and distal ends respectively, and the distal end was ligated. An incision was carefully made on the exposed left external jugular vein, and the tip end without thread-restraining of the bypass cannula prepared as described above was inserted into the proximal end of the open incision in the left external jugular vein. A precise amount of heparin in normal saline (50 IU/kg) was injected through the tip at the other end by using an injector. Then, the injector was replaced, and precise amount of drug was injected by the same way. At this moment, without removing the injector from the ethylene tube, the right common carotid artery was separated, and the proximal end was clipped by an artery clip. The right common carotid artery was penetrated with a suture at the proximal and distal ends respectively, and the distal end was ligated. An incision was carefully cut across the right common carotid artery near the artery clip. The injector was pulled out of the polyethylene tube through the tip, and the tip of the polyethylene tube was then inserted into the proximal end of the artery incision. Both ends of the bypass cannula were fixed to the artery or vein with #4 sutures. The artery clip was then removed to allow blood to flow from the artery to the vein through the bypass cannula. A rat arteriovenous bypass thrombolysis model was thus established. The process was timed from the beginning of circulation, the thread attached with thrombus was taken out from the bypass cannula after 15 minutes and accurately weighed. The difference in the mass of the thread before and after was determined as the wet weight of the thrombus, which was statistically analyzed and used to evaluate the in vivo antithrombotic activities of the compounds. The wet weight of the thrombus was expressed as average value and standard deviation (x±SD). The drug administration method is intravenous injection. The blank control was normal saline solution, and the dose was 1 mL/kg. The positive control was aspirin, and the dose was 9 mg/kg. The dose of compounds 5Aa-p of the present invention was 0.1 nmol/kg. The method was the same as in example 3. The drug administration method is intravenous injection. The blank control was normal saline solution, and the dose was 3 mL/kg. The positive control was aspirin, and the dose was 9 mg/kg.

[3] = NO radical scavenging activity (MGD/SNAP signal peak height); type: biochemical; conditions: n = 6
Experimental: 7.325 mg MGD (N-methyl-glucamine dithiocarbamate, Sigma) was dissolved in 1 mL of pure water to obtain 25 mM MGD solution. […] FeSO4.7H2O was dissolved in 1 mL of pure water to obtain 12.5 mM solution. […] SNAP (S-Nitroso-acetyl penicillamine) was dissolved in 1 mL of pure water to obtain 110 μM green mother liquid, which was diluted 100 folds to obtain 1 μM SNAP solution.
The first peak height of NO signal of 5 μL MGD solution+5 μL FeSO4.7H2O solution+5 μL SNAP solution+5 μL water was measured and repeated for 6 times. This peak height defined as the known peak height of NO signal. The first peak height of NO signal of 5 μL MGD solution+5 μL FeSO4.7H2O solution+5 μL SNAP solution+5 μL solution of one of the compounds 5Aa-p was measured and repeated for 6 times. This peak height defined as the residual peak height of the NO signal scavenged by one of the compounds 5Aa-p. Scavenging ratio=(known peak height of NO signal−residual peak height of NO signal of compounds 5Aa-p)/known peak height of NO signal

C[C@H](NC(=O)[C@@H]1CCCN1)C(=O)N[C@@H](Cc1ccc(O)cc1)C(=O)NCCCC[C@H](NC(=O)[C@@H]1Cc2cc(O)c(O)cc2C(C)(C)N1)C(=O)O [Compound 5Ad, 3S-6,7-dihydroxy-1,1-dimethyl-1,2,3,4-tetrahydro-isoquinoline-3-acyl-Lys(Pro-Ala-Tyr)]
Weight reduction in thrombus [1]: 18.11 ± 2.48^b mg
Thrombolytic activity, result in words [1]: higher thrombolytic activity
wet weight of thrombus [2]: 51.91 ± 4.97^a mg
EC50 [3]: 453 ± 41 µM

C[C@H](NC(=O)[C@@H]1CCCN1)C(=O)N[C@@H](CC(N)=O)C(=O)NCCCC[C@H](NC(=O)[C@@H]1Cc2cc(O)c(O)cc2C(C)(C)N1)C(=O)O [Compound 5An, 3S-6,7-dihydroxy-1,1-dimethyl-1,2,3,4-tetrahydro-isoquinoline-3-acyl-Lys(Pro-Ala-Asn)]
Weight reduction in thrombus [1]: 16.44 ± 2.32^a mg
wet weight of thrombus [2]: 55.11 ± 4.76^a mg
EC50 [3]: 659 ± 89 µM

C[C@H](NC(=O)[C@@H]1CCCN1)C(=O)N1CCC[C@H]1C(=O)NCCCC[C@H](NC(=O)[C@@H]1Cc2cc(O)c(O)cc2C(C)(C)N1)C(=O)O [Compound 5Ae, 3S-6,7-dihydroxy-1,1-dimethyl-1,2,3,4-tetrahydro-isoquinoline-3-acyl-Lys(Pro-Ala-Pro)]
Weight reduction in thrombus [1]: 13.63 ± 1.92^a mg
wet weight of thrombus [2]: 57.20 ± 6.43^a mg
EC50 [3]: 617 ± 88 µM

C[C@H](NC(=O)[C@@H]1CCCN1)C(=O)N[C@@H](CC(=O)O)C(=O)NCCCC[C@H](NC(=O)[C@@H]1Cc2cc(O)c(O)cc2C(C)(C)N1)C(=O)O [Compound 5Ao, 3S-6,7-dihydroxy-1,1-dimethyl-1,2,3,4-tetrahydro-isoquinoline-3-acyl-Lys(Pro-Ala-Asp)]
Weight reduction in thrombus [1]: 15.86 ± 2.21^a mg
Thrombolytic activity, result in words [1]: comparable to that of urokinase
wet weight of thrombus [2]: 48.34 ± 3.29^a mg
EC50 [3]: 473 ± 99 µM

C[C@H](NC(=O)[C@@H]1CCCN1)C(=O)N[C@@H](CCC(=O)O)C(=O)NCCCC[C@H](NC(=O)[C@@H]1Cc2cc(O)c(O)cc2C(C)(C)N1)C(=O)O [Compound 5Ap, 3S-6,7-dihydroxy-1,1-dimethyl-1,2,3,4-tetrahydro-isoquinoline-3-acyl-Lys(Pro-Ala-Glu)]
Weight reduction in thrombus [1]: 16.03 ± 2.14^a mg
wet weight of thrombus [2]: 49.97 ± 6.32^a mg
EC50 [3]: 477 ± 91 µM
